Consider six compounds from patent US9486506B2 (Novo Nordisk A/S, priority 2011, dated 2016).

The pEC50 is −log10 of the EC50, conventionally taken in molar units.

For one series, the target named is T1, glucagon receptor (Homo sapiens, UniProt P47871).
T1 construct: expressed in transfected cells
The series can be described thus: Assay (I) Glucagon activity (cAMP biosensor, FLIPR). Type of series: cell-based.

A short description of series [1]: Assay (X) Chemical stability assessment by RP-UPLC. As to conditions: pH 8.15, 14 days at 37° C. vs 5° C., 333 μM. The format is physicochemical.

pEC50: −log10 of the molar value. Numbered stars: 1 amine (or outer) side, 2 acyl side, 3 side chain; on linkers, the order of the positions; unused ones are H or OH. Side chains are listed from the residue outwards. Peptide text beside a SMILES is read from it. * marks the point of attachment. C18 diacid = O=C(O)CCCCCCCCCCCCCCCCC(=O)*; γGlu = O=C(O)[C@H](CCC(=O)[*:2])N[*:1]; AEEA = NCCOCCOCC(=O)O

T1 sequence (P47871 26-477): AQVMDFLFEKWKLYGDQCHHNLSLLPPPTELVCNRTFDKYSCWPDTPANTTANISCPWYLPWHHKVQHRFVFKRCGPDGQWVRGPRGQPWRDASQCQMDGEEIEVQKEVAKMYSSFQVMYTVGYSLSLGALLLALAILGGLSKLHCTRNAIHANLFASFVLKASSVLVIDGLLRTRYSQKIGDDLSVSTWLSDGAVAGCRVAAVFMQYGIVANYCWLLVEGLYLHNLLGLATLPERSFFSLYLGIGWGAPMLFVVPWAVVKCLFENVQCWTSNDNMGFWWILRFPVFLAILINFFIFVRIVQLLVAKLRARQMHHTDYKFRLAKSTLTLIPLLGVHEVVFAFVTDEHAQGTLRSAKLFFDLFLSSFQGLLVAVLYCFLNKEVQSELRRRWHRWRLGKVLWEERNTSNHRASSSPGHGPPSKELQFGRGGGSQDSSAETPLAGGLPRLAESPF

As for `CC(C)C[C@H](NC(=O)[C@H](Cc1ccc(O)cc1)NC(=O)[C@H](CCCCN)NC(=O)[C@H](CO)NC(=O)[C@H](Cc1ccc(O)cc1)NC(=O)[C@H](CC(=O)O)NC(=O)[C@H](CO)NC(=O)[C@@H](NC(=O)[C@H](Cc1ccccc1)NC(=O)[C@@H](NC(=O)CNC(=O)[C@H](CCC(N)=O)NC(=O)[C@H](CO)NC(=O)[C@@H](N)Cc1c[nH]cn1)[C@@H](C)O)[C@@H](C)O)C(=O)N[C@@H](CC(=O)O)C(=O)N[C@@H](C)C(=O)N[C@@H](CCCNC(=N)N)C(=O)N[C@@H](CCCNC(=N)N)C(=O)N[C@@H](C)C(=O)N[C@@H](CCC(N)=O)C(=O)N[C@@H](CC(=O)O)C(=O)N[C@@H](Cc1ccccc1)C(=O)N[C@H](C(=O)N[C@@H](CCCCNC(=O)CC[C@H](NC(=O)CC[C@H](NC(=O)COCCOCCNC(=O)COCCOCCNC(=O)CC[C@H](NC(=O)CCCCCCCCCCCCCCCCC(=O)O)C(=O)O)C(=O)O)C(=O)O)C(=O)N[C@@H](Cc1c[nH]c2ccccc12)C(=O)N[C@@H](CC(C)C)C(=O)N[C@@H](CC(C)C)C(=O)N[C@@H](CCC(N)=O)C(=O)N[C@H](C(=O)O)[C@@H](C)O)C(C)C` [Example 56, N^ε24-[(4S)-4-carboxy-4-[[(4S)-4-carboxy-4-[[2-[2-[2-[[2-[2-[2-[[(4S)-4-carboxy-4-(17-carboxyheptadecanoylamino)butanoyl]amino]ethoxy]ethoxy]acetyl]amino]ethoxy]ethoxy]acetyl]amino]butanoyl]amino]butanoyl]-[Ala16,Lys24,Leu27,Gln28]-Glucagon], the negative-log EC50 (pEC50) at glucagon receptor is 9.72. In series [1], the “Chemical stability [Purity loss/14 days 37 C.]” value stood at 8.1%.
On the same counts, the results for `CC(C)C[C@H](NC(=O)[C@H](Cc1ccc(O)cc1)NC(=O)[C@H](CCCCN)NC(=O)[C@H](CO)NC(=O)[C@H](Cc1ccc(O)cc1)NC(=O)[C@H](CC(=O)O)NC(=O)[C@H](CO)NC(=O)[C@@H](NC(=O)[C@H](Cc1ccccc1)NC(=O)[C@@H](NC(=O)CNC(=O)[C@H](CCC(N)=O)NC(=O)[C@H](CO)NC(=O)[C@@H](N)Cc1c[nH]cn1)[C@@H](C)O)[C@@H](C)O)C(=O)N[C@@H](CC(=O)O)C(=O)N[C@@H](C)C(=O)N[C@@H](CCCNC(=N)N)C(=O)N[C@@H](CCCNC(=N)N)C(=O)N[C@@H](C)C(=O)N[C@@H](CCC(N)=O)C(=O)N[C@@H](CC(=O)O)C(=O)N[C@@H](Cc1ccccc1)C(=O)N[C@H](C(=O)N[C@@H](CCCCNC(=O)CC[C@H](NC(=O)CC[C@H](NC(=O)COCCOCCNC(=O)COCCOCCNC(=O)CC[C@H](NC(=O)CCCCCCCCCCCCCCCCC(=O)O)C(=O)O)C(=O)O)C(=O)O)C(=O)N[C@@H](Cc1c[nH]c2ccccc12)C(=O)N[C@@H](CC(C)C)C(=O)N[C@@H](CCC(=O)O)C(=O)N[C@@H](CO)C(=O)N[C@H](C(=O)O)[C@@H](C)O)C(C)C` [Example 57, N^ε24-[(4S)-4-carboxy-4-[[(4S)-4-carboxy-4-[[2-[2-[2-[[2-[2-[2-[[(4S)-4-carboxy-4-(17-carboxyheptadecanoylamino)butanoyl]amino]ethoxy]ethoxy]acetyl]amino]ethoxy]ethoxy]acetyl]amino]butanoyl]amino]butanoyl]-[Ala16,Lys24,Glu27,Ser28]-Glucagon] are 10.15 and 7.9%.
In the same order, the values of `CC(C)C[C@H](NC(=O)[C@H](Cc1ccc(O)cc1)NC(=O)[C@H](CCCCN)NC(=O)[C@H](CO)NC(=O)[C@H](Cc1ccc(O)cc1)NC(=O)[C@H](CC(=O)O)NC(=O)[C@H](CO)NC(=O)[C@@H](NC(=O)[C@H](Cc1ccccc1)NC(=O)[C@@H](NC(=O)CNC(=O)[C@H](CCC(N)=O)NC(=O)[C@H](CO)NC(=O)[C@@H](N)Cc1c[nH]cn1)[C@@H](C)O)[C@@H](C)O)C(=O)N[C@@H](CCC(=O)O)C(=O)N[C@@H](CO)C(=O)N[C@@H](CCCNC(=N)N)C(=O)N[C@@H](CCCNC(=N)N)C(=O)N[C@@H](C)C(=O)N[C@@H](CCC(N)=O)C(=O)N[C@@H](CC(=O)O)C(=O)N[C@@H](Cc1ccccc1)C(=O)N[C@H](C(=O)N[C@@H](CCCCNC(=O)CC[C@H](NC(=O)CC[C@H](NC(=O)COCCOCCNC(=O)COCCOCCNC(=O)CC[C@H](NC(=O)CCCCCCCCCCCCCCCCC(=O)O)C(=O)O)C(=O)O)C(=O)O)C(=O)N[C@@H](Cc1c[nH]c2ccccc12)C(=O)N[C@@H](CC(C)C)C(=O)N[C@@H](CC(C)C)C(=O)N[C@@H](CO)C(=O)N[C@H](C(N)=O)[C@@H](C)O)C(C)C` [Example 58, N^ε24-[(4S)-4-carboxy-4-[[(4S)-4-carboxy-4-[[2-[2-[2-[[2-[2-[2-[[(4S)-4-carboxy-4-(17-carboxyheptadecanoylamino)butanoyl]amino]ethoxy]ethoxy]acetyl]amino]ethoxy]ethoxy]acetyl]amino]butanoyl]amino]butanoyl]-[Glu15,Lys24,Leu27,Ser28]-Glucagon amide] are 9.87 and 7.3%.
In the same order, the values of `CC(C)C[C@H](NC(=O)[C@H](Cc1c[nH]c2ccccc12)NC(=O)[C@H](CCCCNC(=O)CC[C@H](NC(=O)COCCOCCNC(=O)COCCOCCNC(=O)CC[C@H](NC(=O)CC[C@H](NC(=O)CCCCCCCCCCCCCCCCC(=O)O)C(=O)O)C(=O)O)C(=O)O)NC(=O)[C@@H](NC(=O)[C@H](Cc1ccccc1)NC(=O)[C@H](CCC(=O)O)NC(=O)[C@H](CCC(N)=O)NC(=O)[C@H](C)NC(=O)[C@H](CCCNC(=N)N)NC(=O)[C@H](CCCNC(=N)N)NC(=O)[C@@H](NC(=O)[C@H](CC(=O)O)NC(=O)[C@H](CC(C)C)NC(=O)[C@H](Cc1ccc(O)cc1)NC(=O)[C@H](CCCCN)NC(=O)[C@H](CO)NC(=O)[C@@H](NC(=O)[C@H](CC(=O)O)NC(=O)[C@H](CO)NC(=O)[C@@H](NC(=O)[C@H](Cc1ccccc1)NC(=O)[C@@H](NC(=O)CNC(=O)[C@H](CCC(N)=O)NC(=O)[C@H](CO)NC(=O)[C@@H](N)Cc1c[nH]cn1)[C@@H](C)O)[C@@H](C)O)C(C)C)[C@@H](C)O)C(C)C)C(=O)N[C@@H](CC(C)C)C(=O)N[C@@H](CO)C(=O)N[C@H](C(N)=O)[C@@H](C)O` [Example 61, N^ε24-[(4S)-4-carboxy-4-[[2-[2-[2-[[2-[2-[2-[[(4S)-4-carboxy-4-[[(4S)-4-carboxy-4-(17-carboxyheptadecanoylamino)butanoyl]amino]butanoyl]amino]ethoxy]ethoxy]acetyl]amino]ethoxy]ethoxy]acetyl]amino]butanoyl]-[Val10,Thr16,Glu21,Lys24,Leu27,Ser28]-Glucagon amide] (H-HSQGTFTSDVSKYLDTRRAQEFVK([γGlu-AEEA-AEEA-γGlu-γGlu-C18 diacid])WLLST-NH2) are 9.81 and 6.2%.
Take `CC(C)C[C@H](NC(=O)[C@H](Cc1c[nH]c2ccccc12)NC(=O)[C@H](CCCCNC(=O)COCCOCCNC(=O)COCCOCCNC(=O)CC[C@H](NC(=O)CC[C@H](NC(=O)CC[C@H](NC(=O)CCCCCCCCCCCCCCCCC(=O)O)C(=O)O)C(=O)O)C(=O)O)NC(=O)[C@@H](NC(=O)[C@H](Cc1ccccc1)NC(=O)[C@H](CCC(=O)O)NC(=O)[C@H](CCC(N)=O)NC(=O)[C@H](C)NC(=O)[C@H](CCCNC(=N)N)NC(=O)[C@H](CCCNC(=N)N)NC(=O)[C@@H](NC(=O)[C@H](CC(=O)O)NC(=O)[C@H](CC(C)C)NC(=O)[C@H](Cc1ccc(O)cc1)NC(=O)[C@H](CCCCN)NC(=O)[C@H](CO)NC(=O)[C@@H](NC(=O)[C@H](CC(=O)O)NC(=O)[C@H](CO)NC(=O)[C@@H](NC(=O)[C@H](Cc1ccccc1)NC(=O)[C@@H](NC(=O)CNC(=O)[C@H](CCC(N)=O)NC(=O)[C@H](CO)NC(=O)[C@@H](N)Cc1c[nH]cn1)[C@@H](C)O)[C@@H](C)O)C(C)C)[C@@H](C)O)C(C)C)C(=O)N[C@@H](CC(C)C)C(=O)N[C@@H](CO)C(=O)N[C@H](C(=O)O)[C@@H](C)O` [Example 62, N^ε24-[2-[2-[2-[[2-[2-[2-[[(4S)-4-carboxy-4-[[(4S)-4-carboxy-4-[[(4S)-4-carboxy-4-(17-carboxyheptadecanoylamino)butanoyl]amino]butanoyl]amino]butanoyl]amino]ethoxy]ethoxy]acetyl]amino]ethoxy]ethoxy]acetyl]-[Val10,Thr16,Glu21,Lys24,Leu27,Ser28]-Glucagon] (H-HSQGTFTSDVSKYLDTRRAQEFVK([AEEA-AEEA-γGlu-γGlu-γGlu-C18 diacid])WLLST-OH): at glucagon receptor, the negative-log EC50 (pEC50) is 10.10. The “Chemical stability [Purity loss/14 days 37 C.]” value in series [1] is given as 5.6%.
In the same order, the values of `CC(C)C[C@H](NC(=O)[C@H](Cc1c[nH]c2ccccc12)NC(=O)[C@H](CCCCNC(=O)CC[C@H](NC(=O)COCCOCCNC(=O)COCCOCCNC(=O)CC[C@H](NC(=O)CC[C@H](NC(=O)CCCCCCCCCCCCCCCCC(=O)O)C(=O)O)C(=O)O)C(=O)O)NC(=O)[C@@H](NC(=O)[C@H](Cc1ccccc1)NC(=O)[C@H](CCC(=O)O)NC(=O)[C@H](CCC(N)=O)NC(=O)[C@H](C)NC(=O)[C@H](CCCNC(=N)N)NC(=O)[C@H](CCCNC(=N)N)NC(=O)[C@@H](NC(=O)[C@H](CC(=O)O)NC(=O)[C@H](CC(C)C)NC(=O)[C@H](Cc1ccc(O)cc1)NC(=O)[C@H](CCCNC(=N)N)NC(=O)[C@H](CO)NC(=O)[C@@H](NC(=O)[C@H](CC(=O)O)NC(=O)[C@H](CO)NC(=O)[C@@H](NC(=O)[C@H](Cc1ccccc1)NC(=O)[C@@H](NC(=O)CNC(=O)[C@H](CCC(N)=O)NC(=O)[C@H](CO)NC(=O)[C@@H](N)Cc1c[nH]cn1)[C@@H](C)O)[C@@H](C)O)C(C)C)[C@@H](C)O)C(C)C)C(=O)N[C@@H](CC(C)C)C(=O)N[C@@H](CO)C(=O)N[C@H](C(=O)O)[C@@H](C)O` [Example 64, N^ε24-[(4S)-4-carboxy-4-[[2-[2-[2-[[2-[2-[2-[[(4S)-4-carboxy-4-[[(4S)-4-carboxy-4-(17-carboxyheptadecanoylamino)butanoyl]amino]butanoyl]amino]ethoxy]ethoxy]acetyl]amino]ethoxy]ethoxy]acetyl]amino]butanoyl]-[Val10,Arg12,Thr16,Glu21,Lys24,Leu27,Ser28]-Glucagon] (H-HSQGTFTSDVSRYLDTRRAQEFVK([γGlu-AEEA-AEEA-γGlu-γGlu-C18 diacid])WLLST-OH) are 9.75 and 5.1%.
